PubChem BioAssay (NCI)
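Where inhibition never reached the appropriate level, the endpoint shown equals the highest concentration tested. Otherwise, values were interpolated linearly from a five-concentration, 48-hour dose response in 96-well plates. TGI: total growth inhibition.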

Tests used:
Experiment in all cases: inhibition of tumour cell growth, NCI panel, 48 h
HS 578T breast = system: HS 578T breast
MDA-N = system: MDA-N
MALME-3M melanoma = system: MALME-3M melanoma
OVCAR-8 ovarian = system: OVCAR-8 ovarian
HCT-116 colon = system: HCT-116 colon
MCF7 breast = system: MCF7 breast
HOP-62 NSCLC = system: HOP-62 NSCLC
T-47D breast = system: T-47D breast
ACHN renal = system: ACHN renal
NCI-H23 lung = system: NCI-H23 lung
MDA-MB-231 breast = system: MDA-MB-231 breast
LOX IMVI melanoma = system: LOX IMVI melanoma
K-562 leukemia = system: K-562 leukemia
COLO 205 colon = system: COLO 205 colon
A498 renal = system: A498 renal
SW-620 colon = system: SW-620 colon
PC-3 prostate = system: PC-3 prostate
RXF 393 renal = system: RXF 393 renal
TK-10 renal = system: TK-10 renal
UO-31 renal = system: UO-31 renal
SF-295 CNS = system: SF-295 CNS
HL-60(TB) leukemia = system: HL-60(TB) leukemia
OVCAR-5 ovarian = system: OVCAR-5 ovarian
CCRF-CEM leukemia = system: CCRF-CEM leukemia
OVCAR-3 ovarian = system: OVCAR-3 ovarian
IGROV1 ovarian = system: IGROV1 ovarian
MOLT-4 leukemia = system: MOLT-4 leukemia
HT29 colon = system: HT29 colon
SK-OV-3 ovarian = system: SK-OV-3 ovarian
SNB-19 CNS = system: SNB-19 CNS
BT-549 breast = system: BT-549 breast
EKVX NSCLC = system: EKVX NSCLC
M14 melanoma = system: M14 melanoma
NCI-H460 lung = system: NCI-H460 lung
CAKI-1 renal = system: CAKI-1 renal
KM12 colon = system: KM12 colon
SK-MEL-2 melanoma = system: SK-MEL-2 melanoma
NCI-H226 lung = system: NCI-H226 lung
SK-MEL-28 melanoma = system: SK-MEL-28 melanoma
SF-539 CNS = system: SF-539 CNS
SK-MEL-5 melanoma = system: SK-MEL-5 melanoma
NCI/ADR-RES ovarian = system: NCI/ADR-RES ovarian
U251 CNS = system: U251 CNS
UACC-62 melanoma = system: UACC-62 melanoma
SR leukemia = system: SR leukemia
RPMI-8226 leukemia = system: RPMI-8226 leukemia
OVCAR-4 ovarian = system: OVCAR-4 ovarian
DU-145 prostate = system: DU-145 prostate
MDA-MB-435 = system: MDA-MB-435
UACC-257 melanoma = system: UACC-257 melanoma
HCT-15 colon = system: HCT-15 colon
NCI-H522 lung = system: NCI-H522 lung
786-0 renal = system: 786-0 renal
A549 NSCLC = system: A549 NSCLC
SNB-75 CNS = system: SNB-75 CNS
HCC-2998 colon = system: HCC-2998 colon
SF-268 CNS = system: SF-268 CNS
SN12C renal = system: SN12C renal
HOP-92 NSCLC = system: HOP-92 NSCLC

Measured: TGI

O=C(O)c1cc(N=Nc2ccc([As](=O)(O)O)cc2)ccc1O
not listed: HOP-92 NSCLC
> 100 µM: all other assays above

CC[N+](C)(CC)Cc1ccccc1[N+](=O)[O-]
73.7 µM: OVCAR-3 ovarian
not listed: SNB-19 CNS | HCC-2998 colon
> 100 µM: all other assays above
